Among the data in US9073853B2, “Cycloalkane carboxylic acid derivatives as CXCR3 receptor antagonists” (Sanofi, priority 2011, dated 2015) are IC50 values, retold here.

Sequence of human CXCR3-A receptor (P49682 whole entry): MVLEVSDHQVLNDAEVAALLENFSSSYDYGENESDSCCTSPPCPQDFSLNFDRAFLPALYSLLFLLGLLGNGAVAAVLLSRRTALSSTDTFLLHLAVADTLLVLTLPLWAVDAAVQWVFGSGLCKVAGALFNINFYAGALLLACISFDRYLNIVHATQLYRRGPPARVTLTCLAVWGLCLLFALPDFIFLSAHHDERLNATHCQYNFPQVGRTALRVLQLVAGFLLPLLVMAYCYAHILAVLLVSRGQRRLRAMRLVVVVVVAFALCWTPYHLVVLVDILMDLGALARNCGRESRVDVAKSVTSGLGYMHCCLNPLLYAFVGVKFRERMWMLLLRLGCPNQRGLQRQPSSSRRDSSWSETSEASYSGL

This assay deals with human CXCR3-A receptor (Homo sapiens (Human), UniProt P49682). Nature of the assay: 125I-CXCL10 competition radioligand binding assay. The settings on record: displacement of 125I-CXCL10 from membranes of CHO cells expressing human recombinant CXCR3-A. On the procedure:
IC50 values were determined for the test compounds and used to explore the structure-activity relationships (SAR). […] This cell line was registered in Sanofi-Aventis cell line bank. […] Cell suspension was diluted with PBS and cells were collected with centrifugation at 230 g for 10 minutes at 10° C. with a Juan centrifuge. […] The supernatant was carefully collected and centrifuged at 100,000×g for 60 min at 4° with a Beckman Avanti J30 centrifuge. […] Protein concentration was determined with Bio-Rad protein assay (Cat No 500-0006). Membrane aliquots were stored at -80° C. […] The composition of the binding assay buffer was determined in a course of detailed optimization procedure. […] Binding reaction was initiated by adding of membranes (10-20 μg proteins, approximately 5×10^5 cell equivalents) to the reaction mixture. After 60 minutes of incubation at 25° C. the reaction was terminated by rapid filtration over GF/B glass fiber filters that were pre-soaked with 0.5% polyethyleneimine (Fluka Analytical, P3143) for 1 hour, using a Skatron cell harvester device. Filters then were washed with 8 ml of ice-cold wash buffer (modified binding buffer in which BSA was omitted and the concentration of NaCl was adjusted to 500 mM concentration). The radioactivity retained on the filters was measured by a Wizard 1470 Automatic Gamma counter. Test compounds were dissolved prior to the binding assay at a concentration of 10 mM in DMSO. Stock solutions were stored at -20° C. for not longer than 3 months. […] Before adding these solutions of test compound to the binding reaction mixture, an intermediate dilution procedure was applied, in which 30 μL of each solution sample was transferred into a dilution tube containing 970 μL of binding assay buffer. […] The IC50 values and Hill slopes for competition binding data were obtained using nonlinear four-parametric curve fitting method.
Take `O=C1CCC(=O)N1CCOc1ccc(CN(C[C@H]2CC[C@H](C(=O)O)CC2)C2CCc3cc(Cl)ccc32)cc1Cl` (stereo partly drawn) [Example 21, trans-4-{[{3-Chloro-4-[2-(2,5-dioxo-pyrrolidin-1-yl)-ethoxy]-benzyl}-(5-chloro-indan-1-yl)-amino]-methyl}-cyclohexanecarboxylic acid]: the IC50 is 633 nM.

In the case of `CC(c1ccc2c(c1)CCO2)N(Cc1ccc(OCCN2C(=O)CN(C)C2=O)c(Cl)c1)C[C@H]1CC[C@H](C(=O)O)CC1` (stereo partly drawn) [Example 22, trans-4-({{3-Chloro-4-[2-(3-methyl-2,5-dioxo-imidazolidin-1-yl)-ethoxy]-benzyl}-[1-(2,3-dihydro-benzofuran-5-yl)-ethyl]-amino}-methyl)-cyclohexanecarboxylic acid], the concentration for half-maximal inhibition (IC50) worked out at 112 nM.

On to `C[C@@H](c1ccc(Cl)cc1)N(Cc1ccc(OCCN2C(=O)CN(C)C2=O)c(Cl)c1)C[C@H]1CC[C@H](C(=O)O)CC1` [Example 23, trans-4-({{3-Chloro-4-[2-(3-methyl-2,5-dioxo-imidazolidin-1-yl)-ethoxy]-benzyl}-[(S)-1-(4-chloro-phenyl)-ethyl]-amino}-methyl)-cyclohexanecarboxylic acid], for which the IC50 worked out at 116 nM.

On to `COc1cc(CN(C[C@H]2CC[C@H](C(=O)O)CC2)C2CCc3cc(Cl)ccc32)ccc1OCCN1C(=O)CSC1=O` (stereo partly drawn) [Example 24, trans-4-[((5-Chloro-indan-1-yl)-{4-[2-(2,4-dioxo-thiazolidin-3-yl)-ethoxy]-3-methoxy-benzyl}-amino)-methyl]-cyclohexanecarboxylic acid], for which the IC50 came out at 58 nM.

For the compound `COc1cc(CN(C[C@H]2CC[C@H](C(=O)O)CC2)C(C)c2ccc(Cl)c(C)c2)ccc1OCCN1C(=O)CCC1=O` (stereo partly drawn) [Example 25, trans-4-[([1-(4-Chloro-3-methyl-phenyl)-ethyl]-{4-[2-(2,5-dioxo-pyrrolidin-1-yl)-ethoxy]-3-methoxy-benzyl}-amino)-methyl]-cyclohexanecarboxylic acid], the concentration for half-maximal inhibition (IC50) was 25 nM.

Regarding `COc1cc(CN(C[C@H]2CC[C@H](C(=O)O)CC2)[C@@H](C)c2ccc(Cl)c(C)c2)ccc1OCCN1C(=O)CCC1=O` [Example 26, trans-4-[([(S)-1-(4-Chloro-3-methyl-phenyl)-ethyl]-{4-[2-(2,5-dioxo-pyrrolidin-1-yl)-ethoxy]-3-methoxy-benzyl}-amino)-methyl]-cyclohexanecarboxylic acid], the IC50 turned out to be 64 nM.

Turning to `COc1cc(CN(C[C@H]2CC[C@H](C(=O)O)CC2)[C@H](C)c2ccc(Cl)c(C)c2)ccc1OCCN1C(=O)CCC1=O` [Example 27, trans-4-[([(R)-1-(4-Chloro-3-methyl-phenyl)-ethyl]-{4-[2-(2,5-dioxo-pyrrolidin-1-yl)-ethoxy]-3-methoxy-benzyl}-amino)-methyl]-cyclohexanecarboxylic acid], the half-maximal inhibitory concentration (IC50) stood at 80 nM.

With `CCC(c1ccc2c(c1)CCO2)N(Cc1ccc(OCCN2C(=O)CN(C)C2=O)c(OC)c1)C[C@H]1CC[C@H](C(=O)O)CC1` (stereo partly drawn) [Example 28, trans-4-[([1-(2,3-Dihydro-benzofuran-5-yl)-propyl]-{3-methoxy-4-[2-(3-methyl-2,5-dioxo-imidazolidin-1-yl)-ethoxy]-benzyl}-amino)-methyl]-cyclohexanecarboxylic acid], the IC50 was 81 nM.

Consider `Cc1cc(CN(C[C@H]2CC[C@H](C(=O)O)CC2)C2CCc3cc(Cl)ccc32)ccc1OCCN1C(=O)CCC1=O` (stereo partly drawn) [Example 29, trans-4-[((5-Chloro-indan-1-yl)-{4-[2-(2,5-dioxo-pyrrolidin-1-yl)-ethoxy]-3-methyl-benzyl}-amino)-methyl]-cyclohexanecarboxylic acid], for which the IC50 came out at 150 nM.

Take `Cc1cc(CN(C[C@H]2CC[C@H](C(=O)O)CC2)[C@H]2CCc3cc(Cl)ccc32)ccc1OCCN1C(=O)CCC1=O` [Example 30, trans-4-[(((S)-5-Chloro-indan-1-yl)-{4-[2-(2,5-dioxo-pyrrolidin-1-yl)-ethoxy]-3-methyl-benzyl}-amino)-methyl]-cyclohexanecarboxylic acid]: the IC50 worked out at 53 nM.

For the compound `Cc1cc(CN(C[C@H]2CC[C@H](C(=O)O)CC2)[C@@H]2CCc3cc(Cl)ccc32)ccc1OCCN1C(=O)CCC1=O` [Example 31, trans-4-[(((R)-5-Chloro-indan-1-yl)-{4-[2-(2,5-dioxo-pyrrolidin-1-yl)-ethoxy]-3-methyl-benzyl}-amino)-methyl]-cyclohexanecarboxylic acid], the IC50 came to 360 nM.

Take `C[C@@H](c1ccc(Cl)cc1)N(Cc1ccc(OCCN2C(=O)CCC2=O)c(Cl)c1)C[C@H]1CC[C@H](C(=O)O)CC1` [Example 32, trans-4-({{3-Chloro-4-[2-(2,5-dioxo-pyrrolidin-1-yl)-ethoxy]-benzyl}-[(S)-1-(4-chloro-phenyl)-ethyl]-amino}-methyl)-cyclohexanecarboxylic acid]: the IC50 turned out to be 123 nM.

With `Cc1cc(CN(C[C@H]2CC[C@H](C(=O)O)CC2)C(C)c2ccc3c(c2)CCO3)ccc1OCCN1C(=O)CSC1=O` (stereo partly drawn) [Example 33, trans-4-[([1-(2,3-Dihydro-benzofuran-5-yl)-ethyl]-{4-[2-(2,4-dioxo-thiazolidin-3-yl)-ethoxy]-3-methyl-benzyl}-amino)-methyl]-cyclohexanecarboxylic acid], the 50% inhibitory concentration (IC50) worked out at 42 nM.

With `COc1cc(CN(C[C@H]2CC[C@H](C(=O)O)CC2)[C@@H](C)c2ccc(Cl)cc2)ccc1OCCN1C(=O)CSC1=O` [Example 34, trans-4-[([(S)-1-(4-Chloro-phenyl)-ethyl]-{4-[2-(2,4-dioxo-thiazolidin-3-yl)-ethoxy]-3-methoxy-benzyl}-amino)-methyl]-cyclohexanecarboxylic acid], the IC50 is 22 nM.

Consider `COc1cc(CN(C[C@H]2CC[C@H](C(=O)O)CC2)C(C)c2ccc3c(c2)CCO3)ccc1/C=C/CN1C(=O)CCC1=O` (stereo partly drawn) [Example 35, trans-4-[([1-(2,3-Dihydro-benzofuran-5-yl)-ethyl]-{4-[(E)-3-(2,5-dioxo-pyrrolidin-1-yl)-propenyl]-3-methoxy-benzyl}-amino)-methyl]-cyclohexanecarboxylic acid], for which the 50% inhibitory concentration (IC50) amounted to 1430 nM.

In the case of `COc1cc(CN(C[C@H]2CC[C@H](C(=O)O)CC2)[C@@H](C)c2ccc(Cl)cc2)ccc1OCCN1C(=O)COC1=O` [Example 36, trans-4-[([(S)-1-(4-Chloro-phenyl)-ethyl]-{4-[2-(2,4-dioxo-oxazolidin-3-yl)-ethoxy]-3-methoxy-benzyl}-amino)-methyl]-cyclohexanecarboxylic acid], the IC50 came to 28 nM.

With `COc1cc(CN(C[C@H]2CC[C@H](C(=O)O)CC2)[C@@H](C)c2ccc(Cl)cc2)ccc1OCCn1c(=O)ccn(C)c1=O` [Example 37, trans-4-[([(S)-1-(4-Chloro-phenyl)-ethyl]-{3-methoxy-4-[2-(3-methyl-2,6-dioxo-3,6-dihydro-2H-pyrimidin-1-yl)-ethoxy]-benzyl}-amino)-methyl]-cyclohexanecarboxylic acid], the half-inhibitory concentration (IC50) was 76 nM.

`COc1cc(CN(C[C@H]2CC[C@H](C(=O)O)CC2)C(C)c2ccc3c(c2)CCO3)ccc1OCCN1C(=O)CCCC1=O` (stereo partly drawn) [Example 38, trans-4-[([1-(2,3-Dihydro-benzofuran-5-yl)-ethyl]-{4-[2-(2,6-dioxo-piperidin-1-yl)-ethoxy]-3-methoxy-benzyl}-amino)-methyl]-cyclohexanecarboxylic acid]: the IC50 stood at 163 nM.

As for `Cc1cc(CN(C[C@H]2CC[C@H](C(=O)O)CC2)[C@@H](C)c2ccc(Cl)cc2)ccc1OCCN1C(=O)CN(C)C1=O` [Example 39, trans-4-[([(S)-1-(4-Chloro-phenyl)-ethyl]-{3-methyl-4-[2-(3-methyl-2,5-dioxo-imidazolidin-1-yl)-ethoxy]-benzyl}-amino)-methyl]-cyclohexanecarboxylic acid], the concentration for half-maximal inhibition (IC50) is 99 nM.

As to `COc1cc(CN(CC2CCCC(C(=O)O)C2)C(C)c2ccc3c(c2)CCO3)ccc1OCCN1C(=O)CCC1=O` (stereo not shown) [Example 41, 3-[([1-(2,3-Dihydro-benzofuran-5-yl)-ethyl]-{4-[2-(2,5-dioxo-pyrrolidin-1-yl)-ethoxy]-3-methoxy-benzyl}-amino)-methyl]-cyclohexanecarboxylic acid], the concentration for half-maximal inhibition (IC50) is 131 nM.

On to `COc1cc(CN(C[C@H]2CC[C@H](C(=O)O)CC2)C2CCc3cc(Cl)c(C)cc32)ccc1OCCN1C(=O)CCC1=O` (stereo partly drawn) [Example 42, trans-4-[((5-Chloro-6-methyl-indan-1-yl)-{4-[2-(2,5-dioxo-pyrrolidin-1-yl)-ethoxy]-3-methoxy-benzyl}-amino)-methyl]-cyclohexanecarboxylic acid], for which the IC50 is 87 nM.

Take `COc1cc(CN(C[C@H]2CC[C@H](C(=O)O)CC2)C2CCc3c2ccc(Cl)c3C)ccc1OCCN1C(=O)CCC1=O` (stereo partly drawn) [Example 43, trans-4-[((5-Chloro-4-methyl-indan-1-yl)-{4-[2-(2,5-dioxo-pyrrolidin-1-yl)-ethoxy]-3-methoxy-benzyl}-amino)-methyl]-cyclohexanecarboxylic acid]: the half-inhibitory concentration (IC50) turned out to be 68 nM.
